From patent publication US7087575B2, “Treating the effect of nicotine” (Mayo Foundation for Medical Education and Research, priority 2002, dated 2006) come the findings set out here.

For one series, the system named is Sprague Dawley rats. In words: Nicotine-induced locomotor activity, daily treatment for 15 days. Type of series: in vivo, rat. The protocol: (§1) Animals and treatment protocol: Male Sprague-Dawley rats weighing 200–250 g were housed in a temperature-controlled room with free access to food and water under artificial 12 hour light/dark cycle. All tests were conducted during the light cycle. The animals received an intraperitoneal (i.p.) injection of either NT69L (1 mg/kg) or an equivalent volume (100 μl) of saline. Thirty minutes after the first injection, the rats received subcutaneous (s.c.) injections of saline or nicotine (0.35 mg/kg). These injections were repeated once a day for 15 days. On days 1 and 15, rats were placed in a Plexiglass Opto-Varimax Minor motility chamber (Columbus Instruments, Columbus, Ohio) and allowed to acclimate for one hour. Baseline activity was recorded for 30 minutes for each rat. The rats then were injected with either saline or NT69L and replaced in the chamber. After 30 minutes, each rat was injected with either saline or nicotine and returned to the chamber. Activity was recorded for 60 minutes. After testing for locomotor activity on day 15, animals were sacrificed. Brain sections were dissected on ice and maintained on dry ice until they were frozen at −80° C., at which temperature they were stored until being assayed. [^3H] cytisine binding: Nicotinic receptor binding sites in membrane homogenates of frozen tissue were measured using [^3H] cytisine according to the method of Pabreza et al. [(1991) Mol. Pharmacol. 39:9–12]. Frozen tissue was resuspended in 50 mM Tris-HCl buffer (pH 7.4), homogenized with a Brinkmann Polytron (setting 6), and washed twice in fresh Tris buffer by centrifugation at 35000×g. The resulting pellets were resuspended in buffer. Aliquots of homogenates were added to tubes containing [^3H] cytisine in the presence or absence of 100 μM nicotine and incubated in a final volume of 250 μl for 75 minutes at 4° C. The binding reactions were terminated by filtration through GF/B filter paper that was mounted on a Brandel cell harvester. Filters were presoaked in 0.5% polyethylenimine to reduce binding of radioligand to the filter. The filters were washed 3 times with cold 0.9% NaCl and counted in a scintillation counter. The data were analyzed using the PC version of the ligand software program. Specific binding was defined as the difference between binding in the presence and absence of 100 μM nicotine.
Sprague Dawley rats were divided into seven groups and injected daily for 14 days with the treatment listed outside the parentheses under each pair of columns in FIG. 1. On day 15, the rats were injected with the treatment listed inside the parentheses under each pair of columns. Locomotor activity was recorded on days 1 and 15. Rats were placed in a motility chamber for one hour for acclimation. A 30 minute baseline was recorded for each rat. The rats were injected with either saline or NT69L and placed in the chamber for 30 minutes. Each rat was then removed from the chamber, injected with either nicotine or saline, and returned to the chamber. Activity was recorded for 60 minutes, and is shown in counts per 10 minute interval.

Series [1] relates to Nicotinic receptor binding sites. Put plainly: [3H] cytisine binding in brain membrane homogenates after in vivo treatment. Also on record: species or system rat. To be noted: for increase in cytisine binding in the VTA: vs saline control, only chronic injection of NT69L significant (P<0.05). The protocol: as §1
Sprague Dawley rats were maintained and treated as described above. Animals were sacrificed on day 15 after being tested for locomotor activity. PFC and VTA sections were harvested on ice and frozen at −80° C until being assayed for cytisine binding as described in Example 1.

For the next series, the system named is rats. Put plainly: Nicotine sensitization, weekly treatment for six weeks, locomotor activity. The format is in vivo, rat. The protocol:
as §1
For a longer term study of nicotine sensitization, rats were divided into seven groups that were treated once a week for six weeks with saline or NT69L followed by a challenge with saline or 0.35 mg/kg nicotine. These experiments allowed examination of both the initiation and expression phases of sensitization. Group 1 received saline/saline each week. Group 2 received saline/saline for the first five weekly treatments, and saline/nicotine in the sixth week. Group 3 received saline/nicotine each week. Group 4 received NT69L/saline each week. Group 5 received NT69L/nicotine each week. Group 6 received NT69L/nicotine for the first five weekly treatments, and saline/nicotine in the sixth week. Group 7 received saline/nicotine for the first five weekly treatments, and NT69L/nicotine in the sixth week. Locomotor activity was measured after each weekly treatment, as described in Example 1.

Series [2] relates to dopamine and its metabolites. In words: Dopamine and metabolites in striatum and PFC by HPLC-EC after in vivo treatment. Also on record: species or system rat. The protocol: Striatal dopamine: Brain dopamine levels were analyzed using high performance liquid chromatography with electrochemical detection (HPLC-EC, ESA, Inc., Chemsford, Mass.), according to previously described procedures (Kilts et al. (1981) J. Chromatogr. 225:347–357; and Krstulovic (1982) J. Chromatogr. 229:1–34). Rats were sacrificed by decapitation, brains were removed, and the striatal tissue was weighed and homogenized in 10 volumes of ice-cold 0.1 N perchloric acid containing 10 mM EDTA. Tissue homogenates were centrifuged at 26,000×g for 10 minutes at 4° C. A 20 μl aliquot of the diluted supernatant was injected onto an HPLC system with an MD-150/RP-C18 column (ESA). The mobile phase contained 10% acetonitrile with 75 mM sodium dihydrogen phosphate, 1.7 mM 1-octane sulfonic acid sodium salt, 0.01% triethylamine, and 25 μM EDTA, pH 3.0. The flow rate was maintained at 0.5 ml/minute. The detector potentials were set at: 350 mV; E1:−175 mV and E2:250 mV. The concentration of dopamine in each sample was quantified by comparison of area under curve (AUC) between samples and external standards run on the same day.
Sprague Dawley rats were treated as described above. Animals were sacrificed on day 15 after being tested for locomotor activity. Striatal and PFC tissues were harvested on ice and frozen at −80° C. until being assayed for dopamine metabolism as detailed in Example 1.

The test system of another series is norepinephrine. In words: Norepinephrine levels in brain tissue after in vivo treatment. Also on record: species or system rat. The protocol:
Sprague Dawley rats were treated as described above. Animals were sacrificed on day 15 after being tested for locomotor activity. PFC sections were harvested on ice and frozen at −80° C. until being assayed for norepinephrine levels.

For the next series, the system named is dopamine D2 receptor. In words: Dopamine D2 receptor binding assay ([3H] raclopride) in striatum after in vivo treatment. Also on record: species or system rat. The protocol: Dopamine D2 receptor binding assay: Homogenized brain tissue was assayed for dopamine D2 receptor binding by the method of Bowden et al. [(1997) Brain Res. 752:227–233]. Briefly, brain tissue was homogenized in buffer (50 mM Tris-HCl, 5 mM KCl and 120 mM NaCl, pH 7.5) and centrifuged at 26,000×g for 10 minutes at 4° C. Pellets were resuspended in buffer to 1 mg/10 μl and immediately used for binding. Aliquots of […] tissue homogenates were added to 25 PI [^3H] raclopride and 25 μl buffer (for total binding) or 25 μl of […] sulipride (for nonspecific binding) in a total volume of 250 μl, and incubated at room temperature for 90 minutes. Membrane-bound radioactivity was recovered by filtration under vacuum through Whatman GF/B filters using a Brandel cell harvester. Filters were washed with ice-cold PBS and radioactivity was determined by liquid scintillation counting. Protein levels were quantified using the Micro BCA assay (Pierce, Rockford, Ill.).

Some results are limits rather than exact numbers.

For `CN1CCCC1c1cccnc1` (stereo not shown) [nicotine], in the series on Sprague Dawley rats (daily nicotine injections, day 1 vs. day 15), the “increase in peak activity (sensitization)” value was greater than 60%. In the series on Sprague Dawley rats (single injection of nicotine 0.35 mg/kg s.c. vs control group sal/sal(sal/sal), P<0.001), the “peak level of locomotor activity” value was “significantly increased”. Moreover, in series [1] (fifteen daily injections of nicotine vs saline control, P<0.05), the “increase of cytisine binding in prefrontal cortex” value is 62%. The “cytisine binding in the PFC” value in series [1] (single nicotine injection on day 15 vs sal/sal(sal/sal)) was “tended to increase cytisine binding in the PFC, but not to a significant level”. The “increase in cytisine binding in the VTA” value in series [1] is listed as 35%. For the same molecule, the “locomotor activity after nicotine challenge without NT69L” value with rats (nicotine 0.35 mg/kg in the sixth week only (group 2)) was “resulted in hyperactivity”; in the series on rats (nicotine challenge each week (group 3)) it was “resulted in increased activity”. The “levels of dopamine and its metabolites as compared to saline control” value in series [2] (PFC, fifteen daily injections of nicotine) was determined as 232%. Also, the “increase in levels of dopamine and its metabolites” value in series [2] (PFC, single injection of nicotine, P<0.05) was found to be 400%. Further, the “increase in striatal dopamine levels” value in series [2] (striatum, single injection of nicotine vs sal/sal(sal/sal), P<0.05) is reported as 192%. In the series with norepinephrine (acute and chronic treatment with nicotine vs saline control, P<0.05), the “increase of norepinephrine levels in the PFC” value is recorded as 213–300%.

With “N-methyl-Arg-Lys-Pro-L-neo-Trp-tert-Leu-Leu [NT69L]”, in the series on Sprague Dawley rats (acute injection of NT69L 1 mg/kg i.p. on day 1, 30 minutes prior to nicotine, P<0.001), the “reduction of nicotine-induced hyperactivity” value is 24%. Besides, in the series with Sprague Dawley rats (daily injection of NT69L), the “reduction of the magnitude of locomotor sensitization” value worked out at 24%. Moreover, in the series on Sprague Dawley rats (day 1, NT69L 1 mg/kg i.p. without nicotine), the “locomotor activity 69/sal vs sal/sal groups (sedation)” value was “no significant difference”. Also, the “activity compared with saline after fifteen days of treatment” value with Sprague Dawley rats (sal/nic(sal/nic) vs. 69/nic(69/nic), P<0.05) is recorded as “statistically significant reduction in activity”. In the series on Sprague Dawley rats (single injection of NT69L 30 minutes prior to nicotine on the fifteenth day of nicotine administration, P<0.001), the “sensitized nicotine-induced activity after NT69L” value is 10 % of control. Besides, the “reduction of cytisine binding caused by acute nicotine injection” value in series [1] (PFC, NT69L daily for 15 days, acute, but not chronic, nicotine) amounted to 62%. In addition, in series [1] (PFC, acute injection of NT69L prior to nicotine on day fifteen), the “reduction of the increase in cytisine binding caused by 15 daily injections of nicotine” value is on record as 65%. Also, the “increase in cytisine binding in the VTA” value in series [1] stood at 35%. For the same molecule, the “dopamine (D2) receptor binding in striatum across nicotine and NT69L treatment groups” value in the series with dopamine D2 receptor is listed as “No difference”. Further, in the series with rats (NT69L before nicotine challenge each week (group 5)), the “effect on nicotine-induced hyperactivity” value is recorded as “largely prevented the hyperactivity”. The “activity after NT69L in the sixth week” value in the series with rats (five weeks nicotine without NT69L, then NT69L/nicotine in week six (group 7)) is recorded as “significant decrease in activity”. Besides, the “initiation and expression of nicotine sensitization” value with rats (weekly treatment for six weeks) was “effectively blocked”. In addition, the “lowering of the nicotine-induced increase in dopamine” value is listed as 62% in series [2] (PFC, injection of NT69L for 15 days) and 28% in series [2] (PFC, pretreating with NT69L before nicotine injection on day 15). Moreover, the “effect on dopamine levels in the striatum” value in series [2] (pretreatment with NT69L) was “did not significantly affect”. Besides, the “reduction in norepinephrine levels” value in the series on norepinephrine (PFC, daily injections of NT69L, single injection of nicotine) is on record as 40%. The “norepinephrine in the striatum between treatment groups” value in the series on norepinephrine (striatum) is “No significant differences”.
